From patent publication US4297276A, “Thymosin beta 3 and beta 4” (Hoffman-La Roche Inc., priority 1980, dated 1981)
Numbered stars: 1 amine (or outer) side, 2 acyl side, 3 side chain; on linkers, the order of the positions; unused ones are H or OH. Bridge positions count the residues as written; N and C are the ends. Square brackets hold non-standard residues; d marks the D form. Peptide text beside a SMILES is read from it. I, II: the chains in the order shown. Actinocin(9to1) = Cc1c2oc3c(C)ccc(C(=O)[*:1])c3nc-2c(C(=O)[*:2])c(N)c1=O; NMeV = CN[C@H](C(=O)O)C(C)C; Sar = CNCC(=O)O

Key:
[1] = test system: TdT positive cells in T-cell populations; conditions: partially purified peptides; Low and Goldstein 1978; cited from earlier work
[2] = Isoelectric focusing (isoelectric point); type: physicochemical
Description: Isoelectric focusing was conducted for 90 minutes using a constant power of 25 watts (LKB Model 2103 power supply). The gels were fixed in 20% trichloroacetic acid for one hour. They were stained in 0.1% Coomassie Blue in 20% trichloroacetic acid and destained in 10% trichloroacetic acid.

[3] = test system: terminal deoxynucleotidyl transferase (TdT); assay: In vitro induction of TdT in fraction B bone marrow cells from NIH Swiss nu/nu mice; type: cell-based; conditions: for TdT induction relative to the thymosin fraction 5 level: BSA fraction B from bone marrow; for TdT specific activity: peak I activity only, incubation 18 hours with 50 ng/ml
Description: The method of Raidt et al., J. Exp. Med. 128, 681 (1968) was used to fractionate different cell suspensions from spleen, thymus, lymph nodes or bone marrow. Four layers of cells were formed at the interfaces of the discontinuous BSA gradient: Fraction A between 10% and 23% BSA; fraction B between 23-26%; fraction C between 26-29%; and fraction D between 29-33% BSA. BSA (Path-O-Cyte 5, lots 25 and 26) was obtained from Miles Research Products (Elkhart, Ind.). Fractionated cells were washed three times in Ham's F-12 medium.
(§1) The procedure for enzyme extraction has been described previously by Pazmino et al., J. Immunol. 119, 494 (1977).
(§2) The TdT assay was adapted from Kung et al, J. Exp. Med. 141, 855 (1975). One unit of enzyme activity was defined as the amount catalyzing the incorporation of 1 pmol of dGTP into acid insoluble material per hour. The specific activity was calculated from the total enzyme activity recovered from phosphocellulose per 10^8 nucleated viable cells.
Ten daily injections of 100 μg were given intraperitoneally to six-week-old NIH Swiss nu/nu, which were sacrificed 24 hours after the last injection. For the in vitro induction experiments, cells were washed three times after BSA gradient fractionation in Ham's F-12 medium containing 100 U/ml penicillin, 100 μg/ml streptomycin and 10 μg/ml gentomycin. After being washed, cell concentrations were adjusted to 1×10^8 cells/dish in 20 ml of Ham's F-12 medium containing antibiotics, 5% fetal bovine serum (Flow Laboratories, Rockville, Md.) and different concentrations of thymosin or spleen fraction 5 or of any of the different peptides isolated from thymosin. After incubation for various periods of time, cells were collected, washed twice with Ham's F-12 and extracted as previously described for TdT activity.
The following peptides, isolated from thymosin, were assayed for their ability to induce TdT in vitro: α1, β1, β3, β4, and synthetic α-1.
(§3) Actinomycin D at 0.5 μg/ml was incubated for 12 hours in the presence of thymosin with fraction B from the bone marrow of NIH Swiss nu/nu mice to study their effect on TdT induction. To follow the effect of Actinomycin D on RNA synthesis, cells were labeled with [^3 H] uridine (10 μCi/ml) for the last 90 minutes of incubation.

[4] = test system: terminal deoxynucleotidyl transferase (TdT); assay: In vivo TdT assay in thymocytes from hydrocortisone acetate treated C57BL/6J mice; conditions: for TdT specific activity: daily for 9 to 11 days, thymocytes
Description: as §1, §2
Thymosin activity was also tested by a in vivo TdT assay. Different doses of thymosin fraction 5 and other purified thymosin polypeptides were injected into hydrocortisone acetate treated C57BL/6J mice daily for 9 to 11 days. The animals were sacrificed, thymocytes prepared and TdT activity determined using the method described by Pazmino et al., J. Immunol. 119, 494 (1977). […]

RNA synthesis = assay: Effect of Actinomycin D on RNA synthesis ([3H] uridine labeling) in fraction B bone marrow cells; type: cell-based, mice; conditions: 0.5 μg/ml, 12 hours, in the presence of thymosin
Description: as §3

[5] = FIG. 3, bone marrow fraction B cells

Compound | induction of TdT positive cells in T-cell populations [1] | isoelectric point (pI) [2] | shape of TdT dose response [3] | TdT induction relative to the thymosin fraction 5 level [3] | concentration with significant TdT induction [3, 5] | optimal concentration for TdT induction [3, 5] | effect on TdT induction at higher concentrations ([3]; FIG. 3, β3 even at 500 ng/ml) | TdT specific activity [3] | TdT specific activity ([4]; 1 μg/infection) | TdT specific activity ([4]; 10 μg/infection) | activity in inducing TdT in vivo compared with thymosin fraction 5 ([4]; One μg of β3 vs 100 μg of thymosin fraction 5) | inhibition of RNA synthesis (RNA synthesis) | effect on induction of TdT by thymosin ([3]; 0.5 μg/ml actinomycin D, 12 hours, in the presence of thymosin)
Thymosin β3 | induce TdT positive cells | 5.2 | increases as the doses increase | ~80% | 1 ng/mL | 10 ng/mL | no inhibition of induction was observed | 145.0 picomoles 3HdGTP/hour/10^8 cel | 2758.6 p moles (3HdGTP/30 min/10^8 ce | 2954.3 p moles (3HdGTP/30 min/10^8 ce | as active in inducing TdT in vivo as 100 μg of thymosin fraction 5 | – | –
Thymosin β4 | induce TdT positive cells | 5.1 | increases as the doses increase | 30% | – | – | – | 58.0 picomoles 3HdGTP/hour/10^8 cel | – | – | – | – | –
Cc1c2oc3c(C)ccc(C(=O)N[C@@H]4C(=O)N[C@H](C(C)C)C(=O)N5CCC[C@H]5C(=O)N(C)CC(=O)N(C)[C@@H](C(C)C)C(=O)O[C@@H]4C)c3nc-2c(C(=O)N[C@@H]2C(=O)N[C@H](C(C)C)C(=O)N3CCC[C@H]3C(=O)N(C)CC(=O)N(C)[C@@H](C(C)C)C(=O)O[C@@H]2C)c(N)c1=O [actinomycin D, Actinomycin D, reference compound] (I: T[dV]P[Sar][NMeV] / II: T[dV]P[Sar][NMeV]; ester I:1-I:C, II:1-II:C; linker I:N-II:N via Actinocin(9to1)) | – | – | – | – | – | – | – | – | – | – | – | greater than 95% | inhibited, as is the induction of TdT
